Experimental data from patent US4373094A, “Anthracycline derivatives” (Sanraku-Ocean Co., Ltd., priority 1980, dated 1983).
In brackets after ≈: the same amount, converted by molar mass.

How the values were obtained:
[1] = test system: mouse leukemia L1210 cells; assay: Growth inhibition of cultured mouse leukemia L1210 cells (living cells counted); type: cell-based; details: for IC50: Mus musculus, L1210, L1210 cells, read-out: 50% Inhibitory concentration, Growth inhibition after 24 hours; for antitumor effect on L1210 leukemia cells: in words
Method: The L1210 cells were cultivated at 37° C. overnight and transferred to RPMI (Roswell Park Memorial Institute) 1640 medium containing 20% calf serum at their exponential growth phase so as to give a cell concentration of 4×10^4 cells/ml. The compounds of the present invention were added to the medium at a concentration of 0.02-0.5 μg/ml. […]
(§1) Independently of the above-mentioned experiment, the compounds of the present invention were added to an about 5×10^5 cells/ml L1210 cell suspension in RPMI 1640 medium containing 10% calf serum at a concentration of 0.02-2.5 μg/ml. After 15 minutes, ^14 C-uridine (0.05 μCi/ml) or ^14 C-thymidine (0.05 μCi/ml) was added to the suspension and pulse-labeling was carried out at 37° C. for 60 minutes. The reaction was stopped by addition of a cold 10% trichloroacetic acid solution and an acid-insoluble fraction was precipitated. The precipitate was washed with a cold 5% trichloroacetic acid and the radioactivity was measured.

L1210 cells [2] = assay: Inhibition of RNA synthesis (14C-uridine incorporation) in L1210 cells; type: cell-based, mouse; details: RPMI 1640 medium containing 10% calf serum, pulse-labeling 37° C. for 60 minutes; for IC50: Mus musculus, L1210, 1 h, read-out: 50% Inhibitory concentration, 14C-Uridine (Inhibition of RNA synthesis)
Method: as §1

Solubility in solvents = type: physicochemical; details: for Solubilities: slightly soluble: slightly soluble solvents; for Solubilities: soluble: soluble solvents
L1210 cells [3] = assay: Inhibition of DNA synthesis (14C-thymidine incorporation) in L1210 cells; type: cell-based, mouse; details: RPMI 1640 medium containing 10% calf serum, pulse-labeling 37° C. for 60 minutes; for IC50: Mus musculus, 1 h, read-out: 50% Inhibitory concentration, 14C-Thymidine (Inhibition of DNA synthesis)
Method: as §1

[4] = RPMI 1640 medium containing 20% calf serum, 37° C., head: after 24 hours (text: 3 days)

Compound | IC50 [1, 4] [µg/mL] | antitumor effect on L1210 leukemia cells [1] | IC50 (L1210 cells [2]) [µg/mL] | Solubilities: slightly soluble (Solubility in solvents) | Solubilities: soluble (Solubility in solvents) | IC50 (L1210 cells [3]) [µg/mL] | 50% Inhibitory concentration, Growth inhibition after 24 hours ([1]; L1210 cells, RPMI 1640 medium containing 20% calf serum, 37° C., head: after 24 hours (text: 3 days)) [µg/mL] | 50% Inhibitory concentration, 14C-Thymidine (Inhibition of DNA synthesis) (L1210 cells [3]) [µg/mL] | 50% Inhibitory concentration, 14C-Uridine (Inhibition of RNA synthesis) (L1210 cells [2]) [µg/mL]
CCC1(O)CC(OC2CC(N(C)C)C(OC3CC(O)C(O)C(C)O3)C(C)O2)c2c(cc3c(c2O)C(=O)c2c(O)cc(O)cc2C3=O)C1C(=O)OC (stereo not shown) [2-hydroxy-aclacinomycin S] | 0.7 (≈ 0.978 µM) | have an antitumor effect on L1210 leukemia cells | 1.3 (≈ 1.82 µM) | slightly soluble in water, ether and n-hexane | soluble in acidic water, methanol, ethanol, n-butanol, acetone, ethyl acetate, chloroform, benzene, toluene, dimethylsulfoxide and methyl cellosolve | – | – | – | –
CCC1(O)CC(OC2CC(N(C)C)C(OC3CC(O)C(OC4CCC(O)C(C)O4)C(C)O3)C(C)O2)c2c(cc3c(c2O)C(=O)c2c(O)cc(O)cc2C3=O)C1C(=O)OC (stereo not shown) [2-hydroxy-aclacinomycin M] | 0.08 (≈ 0.0964 µM) | have an antitumor effect on L1210 leukemia cells | 0.1 (≈ 0.12 µM) | slightly soluble in water, ether and n-hexane | soluble in acidic water, methanol, ethanol, n-butanol, acetone, ethyl acetate, chloroform, benzene, toluene, dimethylsulfoxide and methyl cellosolve | 1.2 (≈ 1.45 µM) | – | – | –
CCC1(O)CC(OC2CC(N(C)C)C(O)C(C)O2)c2c(cc3c(c2O)C(=O)c2c(O)cc(O)cc2C3=O)C1C(=O)OC (stereo not shown) [2-hydroxy-aclacinomycin T] | 0.46 (≈ 0.786 µM) | have an antitumor effect on L1210 leukemia cells | 1 (≈ 1.71 µM) | slightly soluble in water, ether and n-hexane | soluble in acidic water, methanol, ethanol, n-butanol, acetone, ethyl acetate, chloroform, benzene, toluene, dimethylsulfoxide and methyl cellosolve | – | – | – | –
CCC1(O)CC(OC2CC(N(C)C)C(OC3CC(O)C(OC4CCC(=O)C(C)O4)C(C)O3)C(C)O2)c2c(cc3c(c2O)C(=O)c2c(O)cc(O)cc2C3=O)C1C(=O)OC (stereo not shown) [2-hydroxy-aclacinomycin A, reference compound] | 0.15 (≈ 0.181 µM) | – | 0.14 (≈ 0.169 µM) | – | – | 0.9 (≈ 1.09 µM) | – | – | –
CCC1(O)CC(OC2CC(N(C)C)C(OC3CC(O)C(OC4CCC(O)C(C)O4)C(C)O3)C(C)O2)c2c(cc3c(c2O)C(=O)c2c(O)cc(O)cc2C3=O)C1C(=O)OC (stereo not shown) [2-hydroxy-aclacinomycin N] | – | have an antitumor effect on L1210 leukemia cells | – | slightly soluble in water, ether and n-hexane | soluble in acidic water, methanol, ethanol, n-butanol, acetone, ethyl acetate, chloroform, benzene, toluene, dimethylsulfoxide and methyl cellosolve | – | 0.095 | 1.2 | 0.18
